Data set [1] has as its system HCT-116. The data set is described as follows: Induction of apoptosis in human HCT-116 cells assessed as early apoptotic cells at 1.2 uM incubated for 48 hrs by Annexin V-FITC/PI staining based flow cytometry (reference value: 1.12 %). In kind it is functional.
The subject of data set [2] is HCT-116. The data set is described as follows: Induction of DNA damage in human HCT-116 cells assessed as increase in orange fluorescence incubated for 48 hrs by AO staining based analysis. To be noted: dose 0.3-1.2 µM. In kind it is functional, cell-based.
The next data set deals with CT26. The data set is described as follows: Antiproliferative activity against mouse CT26 cells assessed as inhibition of cell viability incubated for 48 hrs by CCK8 assay. In kind it is functional, cell-based. To be noted: CT26, 48 h. For orientation: Formazan colour is commonly taken as a measure of viable cells.
Data set [3] relates to HCT-116. The data set is described as follows: Effect on COTL1 expression in human HCT-116 cells upto 6 uM incubated for 30 mins followed by pronase addition measured after 30 mins by DARTS assay. In kind it is functional, cell-based.
A short description of data set [4]: Toxicity in BALB/c mouse implanted with mouse CT26 cells assessed as abnormality in spleen at 15 to 45 mg/kg, ip qd treated for 14 days by H and E staining based analysis. In kind it is organism-based. To be noted: in vivo, 336 h, dose 15-45 mg/kg, time 14 day.
Data set [5] relates to HCT-116. As to the kind of experiment: Induction of apoptosis in human HCT-116 cells assessed as decrease in p-ERK1/2 level by Western blot analysis. It is filed as functional, cell-based. Particulars: dose 0.3-1.2 µM. (A western blot detects proteins with antibodies after separation by electrophoresis.)
For data set [6], the system named is HCT-116. As to the kind of experiment: Induction of apoptosis in human HCT-116 cells harboring siPPIA-3 assessed as early apoptotic cells at 1.2 uM by Annexin V-FITC/PI staining based flow cytometry (reference value: 7.82 %). It is filed as functional. On the technique in general: Flow cytometry measures light scatter and fluorescence of single cells or particles in a stream.

Data set [7] relates to HCT-116. The data set is described as follows: Anti-proliferative activity against human HCT-116 cells harboring siNC assessed as decrease in p-p38 level at 1.2 uM by Western blot analysis. In kind it is functional, cell-based.

This note sets out measurements from ChEMBL document CHEMBL6103618, “Discovery of Novel Oxazolo[4,3-f]purine Derivatives as Antitumor Agents through PPIA Interaction” (J Med Chem, 2025).

Calls of active or inactive are those of the source. No cut-off for these calls is given here.

In general, IC50 refers to the concentration needed to halve the response being measured.

Turning to `C=C(C(=O)OC)N1c2nc(Cl)nc(Cl)c2N2C(c3ccccc3F)OC(C(=O)OCC)(C(=O)OCC)C12` (racemic), the Activity with HCT-116 [1] was 21.3%; with HCT-116 [2], “Dose-dependent-effect”; in the data set on HCT-116 [3], “No effect”; in data set [4] it was “Non-toxic”; in the data set with HCT-116 [5], “Dose-dependent-effect”; in the data set with HCT-116 [6], 8.6%. Further, in the data set on CT26, the IC50 amounted to 860 nM. For the same compound, the result with HCT-116 [7] was Active.
